Reference: patent US20250276983A1, “COMPOUNDS AND METHODS FOR MODULATING HER2” (IAMBIC THERAPEUTICS, INC., priority 2022, published 2025)
Read-outs that look alike come from different tables or passages of the source.

Columns and labels:
Assay type in all cases: cell-based
[1] = system: BaF3_HER2YVMA cells; test: Cell growth inhibition assay, BaF3_HER2YVMA; details: BaF3_HER2YVMA cells, 3 days treatment, CellTiterGlo 2.0, read-out: HER2-YVMA IC50 (nM), cell growth inhibition
[2] = system: BaF3_HER2WT cells; test: Cell growth inhibition assay, BaF3_HER2WT; details: 3 days treatment, CellTiterGlo 2.0, read-out: HER2 WT IC50 (nM), cell growth inhibition
[3] = system: BaF3_EGFRWT cells; test: Cell growth inhibition assay, BaF3_EGFRWT; details: 80 ng/mL recombinant human EGF, 3 days treatment, CellTiterGlo 2.0, read-out: EGFR WT IC50 (nM), cell growth inhibition

SMILES | IC50 ([1]; 72 h) [nM] | IC50 ([2]; 72 h) [nM] | IC50 ([3]; 72 h) [nM] | IC50 [1] [nM] | IC50 [2] [nM] | IC50 [3] [nM]
COC1CCN(C/C=C/C(=O)N2CC(c3ccn4ncnc(Nc5ccc(Oc6ccn7ncnc7c6)c(C)c5)c34)C2)CC1 [Example 42, (E)-1-(3-(4-((4-([1,2,4]triazolo[1,5-a]pyridin-7-yloxy)-3-methylphenyl)amino)pyrrolo[2,1-f][1,2,4]triazin-5-yl)azetidin-1-yl)-4-(4-methoxypiperidin-1-yl)but-2-en-1-one] | < 200 | < 200 | 1500 to 5000 | – | – | –
C=CC(=O)N(C)C1CCN(c2ccn3ncnc(Nc4ccc(Oc5ccn6ncnc6c5)c(C)c4)c23)C1 (stereo not drawn) [Example 72, N-(1-(4-((4-([1,2,4]triazolo[1,5-a]pyridin-7-yloxy)-3-methylphenyl)amino)pyrrolo[2,1-f][1,2,4]triazin-5-yl)pyrrolidin-3-yl)-N-methylacrylamide] | < 200 | < 200 | 1500 to 5000 | – | – | –
Cc1cc(Nc2ncnn3ccc(C4CCN(C(=O)C#CCN(C)C)CC4)c23)ccc1Oc1ccn2ncnc2c1 [Example 64, 1-(4-(4-((4-([1,2,4]triazolo[1,5-a]pyridin-7-yloxy)-3-methylphenyl)amino)pyrrolo[2,1-f][1,2,4]triazin-5-yl)piperidin-1-yl)-4-(dimethylamino)but-2-yn-1-one] | < 200 | < 200 | 200 to 500 | – | – | –
Cc1cc(Nc2ncnn3ccc(C4CCN(C(=O)/C=C/CN5CCN(C)CC5)CC4)c23)ccc1Oc1ccn2ncnc2c1 [Example 24, (E)-1-(4-(4-((4-([1,2,4]triazolo[1,5-a]pyridin-7-yloxy)-3-methylphenyl)amino)pyrrolo[2,1-f][1,2,4]triazin-5-yl)piperidin-1-yl)-4-(4-methylpiperazin-1-yl)but-2-en-1-one] | 500 to 1500 | < 200 | 1500 to 5000 | – | – | –
CO[C@H]1CN(C/C=C/C(=O)N2CCC(c3ccn4ncnc(Nc5ccc(Oc6ccc7c(c6)ncn7C)c(C)c5)c34)CC2)C[C@H]1OC [Example 167, (E)-4-((3R,4S)-3,4-dimethoxypyrrolidin-1-yl)-1-(4-(4-((3-methyl-4-((1-methyl-1H-benzo[d]imidazol-5-yl)oxy)phenyl)amino)pyrrolo[2,1-f][1,2,4]triazin-5-yl)piperidin-1-yl)but-2-en-1-one] | < 200 | < 200 | 1500 to 5000 | – | – | –
C=CC(=O)N1C2CCC1CC(c1ccn3ncnc(Nc4ccc(Oc5ccn6ncnc6c5)c(C)c4)c13)C2 (single isomer, unassigned) [Examples 124 and 125, first eluting isomer, 1-(3-(4-((4-([1,2,4]triazolo[1,5-a]pyridin-7-yloxy)-3-methylphenyl)amino)pyrrolo[2,1-f][1,2,4]triazin-5-yl)-8-azabicyclo[3.2.1]octan-8-yl)prop-2-en-1-one] | < 200 | < 200 | < 200 | – | – | –
Cc1cc(Nc2ncnn3ccc(N4CC(NC(=O)/C=C/CN(C)C)C4)c23)ccc1Oc1ccn2ncnc2c1 [Example 71, (E)-N-(1-(4-((4-([1,2,4]triazolo[1,5-a]pyridin-7-yloxy)-3-methylphenyl)amino)pyrrolo[2,1-f][1,2,4]triazin-5-yl)azetidin-3-yl)-4-(dimethylamino)but-2-enamide] | 200 to 500 | < 200 | 1500 to 5000 | – | – | –
C=C(C(=O)O)C(=O)N1CCC(c2ccn3ncnc(Nc4ccc(Oc5ccn6ncnc6c5)c(C)c4)c23)CC1 [Example 20, 2-(4-(4-((4-([1,2,4]triazolo[1,5-a]pyridin-7-yloxy)-3-methylphenyl)amino)pyrrolo[2,1-f][1,2,4]triazin-5-yl)piperidine-1-carbonyl)acrylic acid] | 1500 to 5000 | 1500 to 5000 | 1500 to 5000 | – | – | –
Cc1cc(Nc2ncnn3ccc(C4CN(C(=O)/C(C#N)=C/C(C)(C)C)C4)c23)ccc1Oc1ccn2ncnc2c1 [Example 89, (E)-2-(3-(4-((4-([1,2,4]triazolo[1,5-a]pyridin-7-yloxy)-3-methylphenyl)amino)pyro-lo[2,1-f][1,2,4]triazin-5-yl)azetidine-1-carbonyl)-4,4-dimethylpent-2-enenitrile] | 1500 to 5000 | 1500 to 5000 | 1500 to 5000 | – | – | –
Cc1cc(Nc2ncnn3ccc(C4CCN(C(=O)C(F)Cl)CC4)c23)ccc1Oc1ccn2ncnc2c1 (stereo not drawn) [Example 35, 1-(4-(4-((4-([1,2,4]triazolo[1,5-a]pyridin-7-yloxy)-3-methylphenyl)amino)pyrrolo[2,1-f][1,2,4]triazin-5-yl)piperidin-1-yl)-2-chloro-2-fluoroethan-1-one acetate] | < 200 | < 200 | 1500 to 5000 | – | – | –
Cc1cc(Nc2ncnn3ccc(C4CCCN(C(=O)C(F)Cl)CC4)c23)ccc1Oc1ccn2ncnc2c1 (single isomer, unassigned) [Examples 145, 146, 147 and 148, second eluting isomer, 1-(4-(4-((4-([1,2,4]triazolo[1,5-a]pyridin-7-yloxy)-3-methylphenyl)amino)pyrrolo[2,1-f][1,2,4]triazin-5-yl)azepan-1-yl)-2-chloro-2-fluoroethan-1-one] | – | – | – | < 200 | < 200 | 500 to 1500

Results, then the compound that gave them:

IC50 ([1]; 72 h) [nM] | IC50 ([2]; 72 h) [nM] | IC50 ([3]; 72 h) [nM] | IC50 [1] [nM] | IC50 [2] [nM] | IC50 [3] [nM] | SMILES
200 to 500 | < 200 | 1500 to 5000 | – | – | – | C=CC(=O)N(C)C1CCCN(c2ccn3ncnc(Nc4ccc(Oc5ccn6ncnc6c5)c(C)c4)c23)C1 (stereo not drawn) [Example 69, N-(1-(4-((4-([1,2,4]triazolo[1,5-a]pyridin-7-yloxy)-3-methylphenyl)amino)pyrrolo[2,1-f][1,2,4]triazin-5-yl)piperidin-3-yl)-N-methylacrylamide]
< 200 | < 200 | 1500 to 5000 | – | – | – | Cc1cc(Nc2ncnn3cc(F)c(C4CCN(C(=O)/C=C/CN(C)C)CC4)c23)ccc1Oc1ccn2ncnc2c1 [Example 152, (E)-1-(4-(4-((4-([1,2,4]triazolo[1,5-a]pyridin-7-yloxy)-3-methylphenyl)amino)-6-fluoropyrrolo[2,1-f][1,2,4]triazin-5-yl)piperidin-1-yl)-4-(dimethylamino)but-2-en-1-one]
500 to 1500 | 200 to 500 | 1500 to 5000 | – | – | – | Cc1cc(Nc2ncnn3ccc([C@@H]4CCCN(C(=O)[C@H](F)Cl)CC4)c23)ccc1Oc1ccn2ncnc2c1 (single isomer, unassigned) [Examples 145, 146, 147 and 148, fourth eluting isomer]
– | – | 1500 to 5000 | 500 to 1500 | < 200 | – | Cc1cc(Nc2ncnn3ccc(C4CCCN(C(=O)/C=C/CN(C)C)C4)c23)ccc1Oc1ccn2ncnc2c1 (single isomer, unassigned) [Examples 107 and 108, first eluting isomer, (E)-1-(3-(4-((4-([1,2,4]triazolo[1,5-a]pyridin-7-yloxy)-3-methylphenyl)amino)pyrrolo[2,1-f][1,2,4]triazin-5-yl)piperidin-1-yl)-4-(dimethylamino)but-2-en-1-one]
200 to 500 | < 200 | 1500 to 5000 | – | – | – | Cc1cc(Nc2ncnn3ccc(C4CN(C(=O)/C=C/CC(C)C)C4)c23)ccc1Oc1ccn2ncnc2c1 [Example 43, (E)-1-(3-(4-((4-([1,2,4]triazolo[1,5-a]pyridin-7-yloxy)-3-methylphenyl)amino)pyrrolo[2,1-f][1,2,4]triazin-5-yl)azetidin-1-yl)-5-methylhex-2-en-1-one]
– | < 200 | 1500 to 5000 | < 200 | – | – | Cc1cc(Nc2ncnn3ccc(C4CCN(C(=O)/C=C/CN(C)C)C4)c23)ccc1Oc1ccn2ncnc2c1 (single isomer, unassigned) [Examples 99 and 100, first eluting isomer, (E)-1-(3-(4-((4-([1,2,4]triazolo[1,5-a]pyridin-7-yloxy)-3-methylphenyl)amino)pyrrolo[2,1-f][1,2,4]triazin-5-yl)pyrrolidin-1-yl)-4-(dimethylamino)but-2-en-1-one]
< 200 | < 200 | 1500 to 5000 | – | – | – | Cc1cc(Nc2ncnn3ccc(C4(O)CN(C(=O)/C=C/CN(C)C)C4)c23)ccc1Oc1ccn2ncnc2c1 [Example 51, (E)-1-(3-(4-((4-([1,2,4]triazolo[1,5-a]pyridin-7-yloxy)-3-methylphenyl)amino)pyrrolo[2,1-f][1,2,4]triazin-5-yl)-3-hydroxyazetidin-1-yl)-4-(dimethylamino)but-2-en-1-one]
< 200 | < 200 | 1500 to 5000 | – | – | – | CO[C@@H]1CN(C/C=C/C(=O)N2CCC(c3ccn4ncnc(Nc5ccc(Oc6ccc7c(c6)ncn7C)c(C)c5)c34)CC2)C[C@H]1OC [Example 168, (E)-4-((3R,4R)-3,4-dimethoxypyrrolidin-1-yl)-1-(4-(4-((3-methyl-4-((1-methyl-1H-benzo[d]imidazol-5-yl)oxy)phenyl)amino)pyrrolo[2,1-f][1,2,4]triazin-5-yl)piperidin-1-yl)but-2-en-1-one]
– | – | – | < 200 | < 200 | 1500 to 5000 | C=C(CN(C)C)C(=O)N1CCCC(c2ccn3ncnc(Nc4ccc(Oc5ccn6ncnc6c5)c(C)c4)c23)CC1 (single isomer, unassigned) [Examples 143 and 144, second eluting isomer, 1-(4-(4-((4-([1,2,4]triazolo[1,5-a]pyridin-7-yloxy)-3-methylphenyl)amino)pyrrolo[2,1-f][1,2,4]triazin-5-yl)azepan-1-yl)-2-((dimethylamino)methyl)prop-2-en-1-one]
